The values below come from US11591323B2, “Muscarinic agonists as non-steroidal and non-opioid analgesics and methods of use thereof” (Barry University, priority 2019, dated 2023).

Read-outs that look alike come from different tables or passages of the source.

Common to all, as to type: cell-based
What all share (set-up): host or cells: CHO cells, stably transfected

For assay [1], the target named is M3 muscarinic receptor (Homo sapiens, UniProt P20309). Nature of the assay: stimulation of cAMP, M3 CHO cells (M3Gs). Here is the method: (§1) Since activation of phospholipase C (PLC) via M2 and M4 receptors is weak, cells were transferred with G15 G-protein to facilitate coupling.
M3 muscarinic receptor, sequence (P20309 whole entry): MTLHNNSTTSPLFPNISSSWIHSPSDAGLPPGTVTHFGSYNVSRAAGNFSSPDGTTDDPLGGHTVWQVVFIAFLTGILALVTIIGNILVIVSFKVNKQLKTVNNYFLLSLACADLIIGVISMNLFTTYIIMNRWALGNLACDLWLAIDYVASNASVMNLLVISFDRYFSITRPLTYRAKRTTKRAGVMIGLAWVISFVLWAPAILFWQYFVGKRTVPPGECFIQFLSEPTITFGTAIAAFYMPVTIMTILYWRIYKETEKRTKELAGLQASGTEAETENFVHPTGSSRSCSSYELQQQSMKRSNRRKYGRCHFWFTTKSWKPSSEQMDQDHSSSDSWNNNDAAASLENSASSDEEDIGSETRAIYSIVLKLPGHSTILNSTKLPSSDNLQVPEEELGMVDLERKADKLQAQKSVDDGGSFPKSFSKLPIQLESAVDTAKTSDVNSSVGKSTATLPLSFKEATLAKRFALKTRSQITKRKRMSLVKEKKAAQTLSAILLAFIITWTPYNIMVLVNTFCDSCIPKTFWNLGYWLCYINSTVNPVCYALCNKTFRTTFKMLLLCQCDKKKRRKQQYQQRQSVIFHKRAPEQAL
(§2) To determine level of cAMP, cells in suspension were pre-incubated for 1 h with 0.4 μM [^3H]adenine, washed, and incubated for 10 min in the presence of isobutylmethylxanthine and 10 μM forskolin. […] Incubation was ended by addition of 0.2 ml of 2.5 M HCl to the samples. Samples were applied to alumina columns (1.5 g of alumina per column), washed with 2 ml ammonium acetate (pH=7.0) and eluted from columns with 4 ml ammonium acetate and measured by liquid scintillation spectrometry. […] The incubation was stopped by addition of 0.5 ml of chloroform methanol HCl mixture (2:1:0.1). After separation of water and organic phases, 0.6 ml of water phase was applied to Dowex columns (1.5 g of Dowex per column), washed by 20 ml of 60 mM ammonium formate/5 mM sodium borate buffer and eluted from columns with 4 ml of 1M ammonium formate/0.1 formic acid buffer and measured by liquid scintillation spectrometry.
(§3) Measurements of the production of cAMP and inositol phosphates: Levels of second messengers cAMP and inositol phosphates were determined in radiochemical chromatography assays as described previously. To determine level of cAMP, cells in suspension were pre-incubated for 1 h with 0.4 μM [^3H]adenine, washed, and incubated for 10 min in the presence of isobutylmethylxanthine and 10 μM forskolin. […] Incubation was ended by addition of 0.2 ml of 2.5 M HCl to the samples. Samples were applied to alumina columns (1.5 g of alumina per column), washed with 2 ml ammonium acetate (pH=7.0) and eluted from columns with 4 ml ammonium acetate and measured by liquid scintillation spectrometry. […] For this purpose, new CHO cell lines stably expressing promiscuous G15 G-protein and M2 or M4 receptor were generated by transfection with pCMV/hygro vector and hygromycin selection. To determine the rate of formation of inositol phosphates IPX, suspended cells were pre-incubated with 0.1 μM [^3H]myo-inositol for 60 min, washed, and incubated with 10 mM LiCl for 15 min. […] The incubation was stopped by addition of 0.5 ml of chloroform methanol HCl mixture (2:1:0.1). After separation of water and organic phases, 0.6 ml of water phase was applied to Dowex columns (1.5 g of Dowex per column), washed by 20 ml of 60 mM ammonium formate/5 mM sodium borate buffer and eluted from columns with 4 ml of 1M ammonium formate/0.1 formic acid buffer and measured by liquid scintillation spectrometry.
(§4) For bi-phasic response, curves were inhibitory and stimulatory phase were fitted separately. Operational Model of Functional Agonism
(§5) [formula] where y is functional response at concentration of tested compound x, EMAX is maximal response of the system, KA is equilibrium dissociation constant and nH is slope factor. Eq. 5 was fitted to data from functional experiments. Eq. 5 was fitted to data by the two-step procedure described earlier. […] In the second step, Eq. 5 with EMAX fixed to the value determined in the first step was fitted to individual experimental data sets. Relative Intrinsic Activity
(§6) Muscarinic receptors are also able to stimulate non-preferential signalling pathways.

In assay [2] the target is T1, M4 muscarinic receptor (Homo sapiens, UniProt P08173).
T1 sequence (P08173 1-479): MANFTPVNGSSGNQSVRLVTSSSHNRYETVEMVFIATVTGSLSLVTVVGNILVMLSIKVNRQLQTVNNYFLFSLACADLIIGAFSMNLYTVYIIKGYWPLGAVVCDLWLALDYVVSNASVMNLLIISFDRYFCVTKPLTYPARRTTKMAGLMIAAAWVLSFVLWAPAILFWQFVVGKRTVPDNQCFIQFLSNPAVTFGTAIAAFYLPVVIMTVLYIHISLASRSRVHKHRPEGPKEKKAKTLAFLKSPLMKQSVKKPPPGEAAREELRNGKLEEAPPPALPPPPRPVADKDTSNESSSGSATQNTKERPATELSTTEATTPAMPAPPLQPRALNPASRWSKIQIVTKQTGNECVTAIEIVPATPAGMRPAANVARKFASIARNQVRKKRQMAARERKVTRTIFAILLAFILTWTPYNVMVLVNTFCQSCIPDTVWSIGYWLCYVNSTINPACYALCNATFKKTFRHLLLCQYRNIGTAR
Nature of the assay: accumulation of IPX, M4 CHO cells (M4Gq). The conditions noted are these: for RAi / E′MAX / τ / Δlog(τ/KA): M4Gq (↑IPX); for RAi: Table 8, relative to carbachol; for E′MAX / τ: Table 8; for Δlog(τ/KA): Table 8, to carbachol. As for the experimental part:
as §2, §3, §4, §5

Assay [3] concerns the target T2, M5 muscarinic receptor (Homo sapiens, UniProt P08912).
T2 sequence (P08912 1-532): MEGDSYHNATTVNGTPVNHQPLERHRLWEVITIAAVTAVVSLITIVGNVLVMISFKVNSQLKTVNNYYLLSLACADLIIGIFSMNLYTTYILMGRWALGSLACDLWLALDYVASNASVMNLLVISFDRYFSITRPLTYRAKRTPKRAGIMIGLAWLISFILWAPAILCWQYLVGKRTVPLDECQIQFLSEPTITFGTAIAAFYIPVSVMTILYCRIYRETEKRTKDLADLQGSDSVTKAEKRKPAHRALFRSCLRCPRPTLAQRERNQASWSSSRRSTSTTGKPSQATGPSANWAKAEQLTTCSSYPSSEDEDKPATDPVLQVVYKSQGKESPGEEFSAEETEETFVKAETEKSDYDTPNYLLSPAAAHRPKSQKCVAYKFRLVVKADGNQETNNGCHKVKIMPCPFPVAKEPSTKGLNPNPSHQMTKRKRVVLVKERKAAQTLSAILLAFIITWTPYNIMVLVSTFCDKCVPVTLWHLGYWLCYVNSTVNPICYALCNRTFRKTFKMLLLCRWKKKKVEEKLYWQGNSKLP
Description: inhibition of forskolin-stimulated cAMP, M5 CHO cells (M5Gi). The conditions noted are these: for Emax: CHO; for effect on forskolin-stimulated production of cAMP: M5, non-preferential response, in words; for RAi: Table 8, relative to carbachol; for Δlog(τ/KA): Table 8, to carbachol; for Gi over Gq+G15 bias: at M5 receptors. As for the experimental part:
as §1, §2, §3, §4, §5, §6

The mark [4] stands for this setting: M3Gs (↑cAMP), Table 8, relative to carbachol.
Setting [5] is: M5Gi (↓cAMP), Table 8, read-out: E′MAX.
Where [6] appears, read: M5Gi (↓cAMP), Table 8, read-out: pEC50 (converted).
Setting [7] is: M5Gi (↓cAMP), Table 8, read-out: pKA (converted).

Regarding `C1=CCN(Cc2cccs2)CC1.Cl` [Compound 6A, 1-[(thiophen-2-yl)methyl]-1,2,3,6-tetrahydropyridin-1-ium chloride], the RAi is 0 in assay [1] (setting [4]), 0 in assay [2] and 0.021 ± 0.002 in assay [3] (M5Gi (↓cAMP)). For the same compound, the Emax in assay [3] (setting [5]) amounted to 22 ± 2%. Moreover, the “effect on forskolin-stimulated production of cAMP” value (from here on “effect”) in assay [3] was “inhibited cAMP production”. The compound further gave a τ in assay [3] (M5Gi (↓cAMP), Table 8) of 0.31 ± 0.04. Besides, the “Δlog(τ/KA)” value in assay [3] (M5Gi (↓cAMP)) is on record as 1.70 ± 0.21. Also, the EC50 in assay [3] (setting [6]) is 21.9 µM. Besides, the Kd in assay [3] (setting [7]) is 31.6 µM. For the same compound, the “Gi over Gq+G15 bias” value in assay [3] is listed as “about 10 fold”.
Turning to `C[N+]1(Cc2cccs2)CC=CCC1.[I-]` (stereo not drawn) [Compound 7A, 1-methyl-1-[(thiophen-2-yl)methyl]-1,2,3,6-tetrahydropyridin-1-ium iodide], the RAi in assay [1] (setting [4]) was determined as 0. The RAi in assay [2] worked out at 0. Further, in assay [3] (setting [5]), the Emax stood at 34 ± 2%. Also, in assay [3], the “effect” value is “inhibited cAMP production” and the “Gi over Gq+G15 bias” value is listed as about 30 fold. The τ in assay [3] (M5Gi (↓cAMP), Table 8) was 0.59 ± 0.02. In assay [3] (M5Gi (↓cAMP)), the RAi is 0.026 ± 0.003 and the “Δlog(τ/KA)” value came out at 1.67 ± 0.18. Further, the EC50 in assay [3] (setting [6]) was 31.6 µM. In assay [3] (setting [7]), the Kd is 50.1 µM.
`C[N+](C)(C)CCOC(N)=O` [carbachol, reference compound]: in assay [2], the “E′MAX” value stood at 1.78 ± 0.05 fold over basal, the τ worked out at 0.24 ± 0.03 and the “Δlog(τ/KA)” value was 0. The “effect” value in assay [3] is listed as “inhibited forskolin-stimulated production of cAMP at nanomolar concentrations”. In assay [3] (M5Gi (↓cAMP), Table 8), the “E′MAX” value was 18 ± 1 % of inhibition and the τ came to 0.24 ± 0.03. For the same compound, the “Δlog(τ/KA)” value in assay [3] (M5Gi (↓cAMP)) was 0.
As for `O=C1CCCN1CC#CCN1CCCC1` [oxotremorine, reference compound], in assay [1], the EC50 was 2.63 µM, the “E′MAX” value was 1.9 ± 0.1 fold increase, the Kd is 3.98 µM and the RAi was determined as 4.23 ± 0.28. Moreover, in assay [1], the “Δlog(τ/KA)” value is −0.63 ± 0.06 and the τ is listed as 0.48 ± 0.05. Also, in assay [2], the EC50 is 0.162 µM, the Kd was 0.2 µM, the “E′MAX” value was 1.58 ± 0.04 fold over basal and the τ turned out to be 0.17 ± 0.02. In addition, in assay [2], the RAi is recorded as 4.69 ± 0.17 and the “Δlog(τ/KA)” value was −0.67 ± 0.06. In assay [3], the EC50 came to 0.0708 µM, the Kd is 0.1 µM and the Emax is 22 ± 2%. In assay [3] (M5Gi (↓cAMP), Table 8), this compound yielded a τ of 0.31 ± 0.03. In assay [3] (M5Gi (↓cAMP)), the RAi is recorded as 6.44 ± 0.67 and the “Δlog(τ/KA)” value is −0.79 ± 0.06.
